Experimental data published in PMC3853024, “Aromatase inhibitor treatment with an intravaginal device and its effect on pre-ovulatory ovarian follicles in a bovine model” (Reproductive Biology and Endocrinology : RB&E, 2013).
Read-outs that look alike come from different tables or passages of the source.

Legend:
plasma progesterone = test: Plasma progesterone concentration (radioimmunoassay) after post-treatment ovulation; type: in vivo, cattle (Hereford-cross beef heifers); details: first 12 days post-ovulation, n=15, P=0.01
Procedure: Heifers in which a CL was detected were given two luteolytic doses of PGF (12 h apart) and monitored by ultrasonography for ovulation. Five to eight days later, the two largest ovarian follicles were ablated by transvaginal ultrasound-guided follicular aspiration to synchronize follicular wave emergence which was expected to occur 1 to 1.5 days later. Prostaglandin (500 μg cloprostenol, Estrumate, Schering-Plough Animal Health, Pointe-Claire, QC, Canada) was given intramuscularly at 60 and 72 h after follicular ablation to induce regression of the CL and shift from a non-ovulatory to an ovulatory follicular wave. […] Devices were inserted on Day 1 and were kept in place until Day 7 or until ovulation was detected, which ever occurred first. […]
Plasma progesterone concentrations were determined in duplicate using a commercial solid-phase radioimmunoassay kit (Coat-A-Count; Diagnostic Products Corporation, Los Angeles, CA, USA). […] All samples were analyzed in a single assay; the intra-assay coefficients of variation were 9.7% and 5.8 % for low- (mean, 1.7 ng/mL) and high-reference samples (mean, 18.7 ng/mL), respectively. […]

[1] = Pharmacokinetics of a letrozole-containing intravaginal device in heifers (plasma letrozole by LCMS/MS); type: in vivo, cattle (Hereford-cross beef heifers); details: for half-life: read-out: Half-life (T1/2) (converted); for Cmax: read-out: Maximal concentration (Cmax); for MRT: read-out: Mean residence time (MRT); for clearance: read-out: Systemic clearance (ClS) (converted); for Vd/F: read-out: Volume of distribution (Vz/f)
Procedure: Intravaginal devices were prepared using a Cue-Mate spine (Bioniche Animal Health, Bellville, ON, Canada) assembled with two blank (progesterone-free) silicone pods that were coated with a gel-based vehicle containing letrozole or vehicle only (control). The vehicle contained the following (all ingredients % w/w): letrozole 10%, gelatin 20% (Gelatin type B, Fisher Scientific, Pittsburgh, PA, USA), polymer 65% (prepared by mixing distilled water 68%, Poloxamer 188 12% and Poloxamer 407 20%, both from Spectrum Chemical, New Brunswick, NJ, USA) and distilled water 5%.
Blood samples were collected by coccygeal venipuncture into 10 mL heparinized vacuum tubes (Becton Dickinson Vacutainer Systems, Franklin Lakes, NJ, USA). Samples were collected daily from pre-treatment follicular wave emergence (Day 0) to 12 days after the subsequent ovulation. In a subset of letrozole-treated animals (n=4), frequent blood samples were collected using an in-dwelling jugular catheter, as previously described, at the time of catheter placement and 0, 10, 20, 30 min, 1, 1.5, 2, 3, 4, 6, 8, 12 and 24 h after treatment for measurement of plasma letrozole concentration. Blood samples were centrifuged at 1500 × g for 20 min and plasma was separated and stored in plastic tubes at -20°C.
Plasma letrozole concentrations were quantified using liquid chromatography tandem mass spectrometry (LCMS/MS), as described. Briefly, letrozole was extracted from […] with […] of 0.1M ammonium acetate followed by the addition of 5 mL methyl t-butyl ether (MTBE) and vortexed for 15 s. The organic layer was removed and transferred to a fresh 15 mL plastic tube and dried by gentle nitrogen gas flow. The dried extract was reconstituted in 1 mL of 100% ethanol. Separation was accomplished by HPLC (Agilent 1200; Agilent, Santa Clara, CA, USA) fitted with an analytical column (50 × 2.1 mm, […] particle size; Betasil C18; Thermo Scientific, Waltham, MA, USA) operated at 35°C. Mass spectra were collected using a tandem mass spectrometer (SCIEX 3000; Applied Bioscience, Foster City, CA, USA) fitted with an electrospray ionisation source, operated in the negative ionisation mode. Quantification was performed using Analyst 1.4.1 software provided by SCIEX (Applied Bioscience). The minimum and maximum values along the standard curve were 0.25 and 500 ng/mL, respectively. The limit of quantification used in this method was 0.25 ng/mL and the mean recovery was 70%.
The following pharmacokinetic parameters were determined: Cmax (maximum observed plasma concentration of letrozole), tmax (time to reach Cmax), t1/2 (terminal elimination half-life), AUC (area under the plasma letrozole concentration-time curve from zero to infinity calculated as AUCtlast). The concentration of letrozole in plasma as a function of time (C–t) data for each heifer was analyzed by non-compartmental techniques using a computer modeling program (WinNonLin Standard Edition Version 2.1, Pharsight Corporation, Mountain View, CA, USA). Peak letrozole concentration in plasma (Cmax) and time to peak letrozole concentration (tmax) were determined using observed values. The apparent terminal rate constant (λ) was determined by linear regression of the last 6–8 points on the terminal phase of the logarithmic plasma concentration vs time curve. The area under the C–t curve until the final plasma sample (AUClast) was determined using the linear trapezoidal rule. The total area under the curve extrapolated to infinity (AUC0-∞) was calculated by adding the Clast obs/λ + AUClast. The terminal half-life (T1/2λ) was calculated as ln2 ⁄λ. The mean residence time (MRT) was calculated as the area under the moment curve extrapolated to infinity (AUMC0-∞) ⁄AUC0-∞. Systemic clearance (ClS) was determined using the dose divided by AUC0-inf. The apparent volume of distribution (Vλ/f) was calculated by clearance divided by λ. […]

[2] = Mean of 4 heifers, intravaginal device 1 g letrozole
[3] = female, Hereford-cross, bovine, plasma, 1 g, Heifer 1, intravaginal device 1 g letrozole
[4] = female, Hereford-cross, bovine, plasma, 1 g, Heifer 2, intravaginal device 1 g letrozole
[5] = female, Hereford-cross, bovine, plasma, 1 g, Heifer 3, intravaginal device 1 g letrozole
[6] = female, Hereford-cross, bovine, plasma, 1 g, Heifer 4, intravaginal device 1 g letrozole
[7] = female, Hereford-cross, bovine, plasma, 1 g, Mean of 4 heifers, intravaginal device 1 g letrozole

**Q.** Which “Plasma progesterone concentrations versus control” value (plasma progesterone) does the source give for N#Cc1ccc(C(c2ccc(C#N)cc2)n2cncn2)cc1 [Letrozole] here?
**A.** higher

**Q.** And the “Area under the curve (AUClast)” value ([1]; Heifer 1, intravaginal device 1 g letrozole)?
**A.** 3538.1 hours x ng/mL

**Q.** What about the “Area under the curve (AUClast)” value ([1]; Heifer 2, intravaginal device 1 g letrozole) of the same compound?
**A.** 2697.7 hours x ng/mL

**Q.** And the “Area under the curve (AUClast)” value ([1]; Heifer 3, intravaginal device 1 g letrozole)?
**A.** 2583.1 hours x ng/mL

**Q.** What about the “Area under the curve (AUClast)” value ([1]; Heifer 4, intravaginal device 1 g letrozole) of the same compound?
**A.** 1698.0 hours x ng/mL

**Q.** And the “Area under the curve (AUClast)” value [1, 2]?
**A.** 2629.2 hours x ng/mL

**Q.** What about the “Half-life (T1/2)” value [1, 2] of the same compound?
**A.** 33.3 h

**Q.** What about the half-life [1, 3] of the same compound?
**A.** 35.1 h

**Q.** What about the Cmax [1, 3] of the same compound?
**A.** 32.4 ng/mL

**Q.** And the MRT [1, 3]?
**A.** 71.5 h

**Q.** And the clearance [1, 3]?
**A.** 1.67 mL/min/kg

**Q.** What about the Vd/F [1, 3] of the same compound?
**A.** 6.2 L/kg

**Q.** And the half-life [1, 4]?
**A.** 20.4 h

**Q.** What about the Cmax [1, 4] of the same compound?
**A.** 35.3 ng/mL

**Q.** And the MRT [1, 4]?
**A.** 56.2 h

**Q.** What about the clearance [1, 4] of the same compound?
**A.** 3.33 mL/min/kg

**Q.** What about the Vd/F [1, 4] of the same compound?
**A.** 4.9 L/kg

**Q.** What about the half-life [1, 5] of the same compound?
**A.** 41.9 h

**Q.** What about the Cmax [1, 5] of the same compound?
**A.** 27.3 ng/mL

**Q.** And the MRT [1, 5]?
**A.** 65.5 h

**Q.** What about the clearance [1, 5] of the same compound?
**A.** 3.33 mL/min/kg

**Q.** What about the Vd/F [1, 5] of the same compound?
**A.** 9.9 L/kg

**Q.** And the half-life [1, 6]?
**A.** 35.7 h

**Q.** And the Cmax [1, 6]?
**A.** 31.7 ng/mL

**Q.** What about the MRT [1, 6] of the same compound?
**A.** 48.7 h

**Q.** And the clearance [1, 6]?
**A.** 5 mL/min/kg

**Q.** And the Vd/F [1, 6]?
**A.** 13.2 L/kg

**Q.** And the half-life [1, 7]?
**A.** 33 h

**Q.** And the Cmax [1, 7]?
**A.** 31.7 ng/mL

**Q.** What about the MRT [1, 7] of the same compound?
**A.** 60.5 h

**Q.** What about the clearance [1, 7] of the same compound?
**A.** 3.33 mL/min/kg

**Q.** What about the Vd/F [1, 7] of the same compound?
**A.** 8.5 L/kg

**Q.** What about the bioavailability ([1]; female, Hereford-cross, bovine, plasma, other: intravaginal device, 1 g, Mean, intravaginal device AUClast versus single iv injection AUClast (unpublished data), corrected by dose) of the same compound?
**A.** 16%

**Q.** And the Tmax ([1]; female, Hereford-cross, bovine, plasma, other: intravaginal device, 1 g, post-device insertion, n=4, read-out: Time of maximal concentration in plasma (tmax))?
**A.** 24 h

**Q.** And the “Duration of letrozole release from the intravaginal device” value ([1]; post-insertion, inferred from plasma letrozole concentration profile)?
**A.** 24 h
